In patent publication US8703705B2, “Modified factor VIII peptides” (Apitope International NV, priority 2009, dated 2014):
No end group written: not given here.

Assays:
Solubility of peptide = assay type: physicochemical
LNC from FVIII-DR2+ mice = experiment: Recall responses of lymph node cells from FVIII-DR2+ mice primed with rhFVIII/CFA; assay type: cell-based, mouse; settings: FVIII-DR2+ animals immunised with factor VIII in adjuvant; FIG. 3
Text: HLA-DR2 transgenic mice were crossed with factor VIII deficient mice to create a model of haemophilia expressing the human HLA class II MHC molecule.
These FVIII-DR2+ animals were immunised with factor VIII in adjuvant. Draining lymph nodes were isolated and tested for their response to the peptide panel.
The same method was followed as for (i), except the mice were FVIII-deficient, HLA-DR2+ and murine MHC class II null.

[1] = system: FVIII+DR2+ T cell hybridoma clones; experiment: FVIII peptide specificity of T cell hybridomas generated from DR2+ mice (IL-2 ELISA); assay type: cell-based, mouse; settings: for number of hybridomas responding to peptide: of the 27 hybridomas screened, 20 μg/ml peptide, IL-2
Text: HLA-DR2 mice were first immunised with factor VIII in adjuvant. Spleen cells from immune mice were restimulated in vitro with factor VIII and the resulting lymphoblasts were fused with the BW5147 thymoma using polyethylene glycol.
T-cell hybridomas were selected in HAT medium and the hybridomas cloned and tested for their response to factor VIII. The hybridomas were then screened for their response to the 12 predicted peptides.
HLA-DR2+ murine MHC class II null mice were immunised as above. On day 10 draining lymph nodes were removed and lymphocytes cultured at 2.5×10^6 cells/ml, 1 ml/well in 24 well plates in the presence of 20 μg/ml rhFVIII for 3 days. Following this stimulation, lymphocytes were recovered, washed and fused with TCRα^−β^− BW fusion partner cells at a ratio of 4 BW cells to 1 lymphocyte, using polyethylene glycol as described by Nelson et al (1980) PNAS 77(5):2866. Fused cells were carefully washed and then plated out in flat bottomed 96 well plates for 2 days before the addition of HAT medium to select for T cell hybridomas. Cells were monitored for growth and approximately 10 days after fusions were performed, individual clones were selected and transferred to 24 well plates in HAT medium. Clones were maintained in HAT medium for at least 2 weeks before being weaned into HT medium and then complete medium. Clones were tested for antigenic specificity by culturing 100 μl of hybridoma cells with 5×10^4 Mgar cells in the presence and absence of 20 μg/ml rhFVIII overnight. Supernatants were then collected and assessed for IL-2 production by ELISA, with clones producing IL-2 in response to rhFVIII being considered positive for FVIII-specificity. To investigate the repertoire of predicted FVIII peptides FVIII-specific clones were again tested for IL-2 production, following overnight incubation with 20 μg/ml of each of the 12 peptides.

[2] = system: FVIII-DR2+ T cell hybridoma clones; experiment: FVIII peptide specificity of T cell hybridomas generated from FVIII-/- HLA-DR2+ mice (IL-2 ELISA); assay type: cell-based, mouse; settings: of 19 hybridomas specific for factor VIII; factor VIII deficient HLA-DR2 mice
Text: Factor VIII deficient mice expressing HLA-DR2 were immunised with factor VIII in adjuvant. Spleen cells from the immunised mice were restimulated in vitro with factor VIII and the resulting lymphoblasts were fused with BW5147, as described above. T-cell hybridomas were screened for their response to the 12 predicted peptides. Yet again, the majority of hybridomas responded to peptides DNIMV (SEQ ID NO: 11) and PRCLT (SEQ ID NO: 9). Of 19 hybridomas specific for factor VIII, 10 responded to DNIMV (SEQ ID NO: 11), 6 to PRCLT (SEQ ID NO: 9), 1 to PPIIA (SEQ ID NO: 4), 1 to SLYIS (SEQ ID NO: 3) and 1 to DTLLI (SEQ ID NO: 8).
The same method was followed as for (ii), except the mice were FVIII-deficient and HLA-DR2+.

[3] = system: FVIII-/- clones with fresh or fixed Mgar cells; experiment: Apitope test: presentation by fresh or paraformaldehyde-fixed Mgar cells to hybridoma clones, IL-2 by ELISA; assay type: cell-based, mouse; settings: Mgar cells fresh or fixed with 1% paraformaldehyde, 20 μg/ml, FIG. 5
Description: In order to be an apitope, a peptide must be capable of binding to an MHC class I or II molecule without further antigen processing (i.e. trimming) and be presented to a T cell. In the present case, the capacity of peptides to be presented by fixed APC was investigated.
Mgar cells were either fresh or fixed with 1% paraformaldehyde. Clones were tested for antigenic specificity by culturing 100 μl of hybridoma cells with 5×10^4 Mgar cells in the presence and absence of 20 μg/ml rhFVIII or peptide epitopes overnight. Supernatants were then collected and assessed for IL-2 production by ELISA.

HLA-DR2 transgenic mice = experiment: Tolerisation of FVIII-specific responses in DR2+ mice by peptide pre-treatment before priming with rhFVIII/CFA; assay type: in vivo, mouse; settings: 3 x 100 μg i.p. in PBS prior to priming with rhFVIII/CFA; FIG. 6
Description: HLA-DR2 transgenic mice were treated with either of the two soluble peptides, or PBS as a control, prior to immunisation with factor VIII in adjuvant. Draining lymph nodes were isolated and the cells restimulated in vitro with factor VIII protein in order to assess the immune status of the mice.
HLA-DR2+ murine MHC class II null mice were treated 3 times with 100 μg of DNIMV (SEQ ID NO: 11), PRCLT (SEQ ID NO: 9) or PPIIA (SEQ ID NO: 4) dissolved in PBS, or the equivalent volume of PBS alone. Peptides were administered intraperitoneally, with 3-4 days between each dose. Following the final administration, mice were primed with rhFVIII emulsified in complete Freunds adjuvant as for (i). 10 days later, draining lymph nodes were recovered and lymphocytes subsequently cultured in vitro with rhFVIII, or each of the tolerising peptides as well as control antigens, for 72 hours before the addition of tritiated thymidine as for (i). (vi) Tolerisation of FVIII-Specific Responses in DR2+Mice by Pre-Treatment with a Combination Immunodominant FVIII Peptides

DNIMVTFRNQASRPY [DNIMV, DNIMVTFRNQASRPY]
solubility (Solubility of peptide): partly, but not completely soluble

GTLMVFFGNVDSSGI (listed as Homo sapiens) [FVIII 15mer peptide, first AA 2140]
response of draining lymph node cells to peptide (LNC from FVIII-DR2+ mice): weak response

PRCLTRYYSSFVNME (listed as Homo sapiens) [FVIII 15mer peptide, first AA 545]
number of hybridomas responding to peptide [1]: 3
response of draining lymph node cells to peptide (LNC from FVIII-DR2+ mice): responded well
number of hybridomas responding to peptide [2]: 6
presentation by live and fixed APC (function as apitope) [3]: presented by both live and fixed mgar cells
suppression of the immune response to factor VIII (LNC recall to FVIII) (HLA-DR2 transgenic mice): substantial suppression of the immune response to factor VIII

DTLLIIFKNQASRPY (listed as Homo sapiens) [FVIII 15mer peptide, first AA 478]
number of hybridomas responding to peptide [2]: 1

EDNIMVTFRNQASR [EDNIMV, EDNIMVTFRNQASR]
solubility (Solubility of peptide): sufficiently soluble to allow intranasal peptide delivery
solubility relative to parent peptide (Solubility of peptide; compared with DNIMV): more soluble than DNIMV

RYLRIHPQSWVHQIA (listed as Homo sapiens) [FVIII 15mer peptide, first AA 2322]
response of draining lymph node cells to peptide (LNC from FVIII-DR2+ mice): significant response

PPIIARYIRLHPTHY (listed as Homo sapiens) [FVIII 15mer peptide, first AA 2161]
character of hybridoma response to peptide ([1]; 27 hybridomas screened): weaker and less specific
number of hybridomas responding to peptide [1]: 3
number of hybridomas responding to peptide [2]: 1

SLYISQFIIMYSLDG (listed as Homo sapiens) [FVIII 15mer peptide, first AA 2114]
number of hybridomas responding to peptide [2]: 1
